Laboratory results taken from paper PMC8940841, “A metabolically stable PET tracer for imaging synaptic vesicle protein 2A: synthesis and preclinical characterization of [^18F]SDM-16” (European Journal of Nuclear Medicine and Molecular Imaging, 2021).
Read-outs that look alike come from different tables or passages of the source.

What was measured:
[1] = Plasma free fraction (fp) by ultrafiltration; assay type: in vitro ADME, rhesus monkey; details: monkey, plasma (separated from spiked whole blood)
[2] = LEV blocking and displacement PET scans, Lassen plot; assay type: in vivo, rhesus monkeys (Macaca mulatta); details: male, rhesus monkey, intravenous
Text: (§1) Four monkeys were studied.
(§2) To examine the in vivo binding specificity, SV2A occupancy, and the extent of nonspecific binding in the monkey brain, we performed the Lassen plot analysis using data from the two baseline scans and one blocking scan in the same monkey.

[3] = Measurement of lipophilicity (octanol / PBS pH 7.4); assay type: physicochemical; details: octanol/PBS pH 7.4
SV2A [4] = biological target: SV2A (Macaca mulatta, UniProt H9EQH8); experiment: LEV blocking and displacement PET scans, Lassen plot; assay type: in vivo, rhesus monkeys (Macaca mulatta); design: from tissue; host or cells: brain of living rhesus monkeys (in vivo PET); details: for VT (blocking): LEV 30 mg/kg i.v.
Sequence of SV2A (Macaca mulatta, UniProt H9EQH8) (H9EQH8 1-742): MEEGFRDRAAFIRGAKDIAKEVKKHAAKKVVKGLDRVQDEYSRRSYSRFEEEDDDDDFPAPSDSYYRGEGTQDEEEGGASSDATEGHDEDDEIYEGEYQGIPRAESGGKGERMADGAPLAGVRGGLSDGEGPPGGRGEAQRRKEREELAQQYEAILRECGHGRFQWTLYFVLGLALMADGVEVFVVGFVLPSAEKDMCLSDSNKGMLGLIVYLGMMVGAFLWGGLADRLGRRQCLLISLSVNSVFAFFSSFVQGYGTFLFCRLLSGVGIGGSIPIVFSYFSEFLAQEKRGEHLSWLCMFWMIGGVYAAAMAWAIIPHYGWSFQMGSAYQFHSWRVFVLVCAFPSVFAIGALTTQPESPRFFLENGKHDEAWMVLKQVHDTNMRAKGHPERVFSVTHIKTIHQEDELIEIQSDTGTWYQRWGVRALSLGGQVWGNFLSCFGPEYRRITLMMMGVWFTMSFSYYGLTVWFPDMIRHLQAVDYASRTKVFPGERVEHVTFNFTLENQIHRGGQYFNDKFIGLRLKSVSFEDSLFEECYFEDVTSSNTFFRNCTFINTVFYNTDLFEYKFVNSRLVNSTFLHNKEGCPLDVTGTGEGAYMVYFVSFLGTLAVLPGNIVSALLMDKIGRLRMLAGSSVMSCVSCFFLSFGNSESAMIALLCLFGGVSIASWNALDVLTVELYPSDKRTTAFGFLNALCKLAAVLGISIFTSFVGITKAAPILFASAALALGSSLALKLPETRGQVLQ
Text: as §1, §2

[5] = Free base fraction in plasma by modified Henderson-Hasselbalch equation (Eq. 1); details: Eq. 1, plasma pH 7.4
[6] = Plasma radiometabolite analysis during PET scans; assay type: in vivo, rhesus monkeys
SV2A [7] = system: SV2A

`Cc1nccn1CN1C[C@@H](c2cc(F)cc([18F])c2)CC1=O` [[^18F]SDM-16, (R)-4-(3-fluoro-5-(fluoro-^18F)phenyl)-1-((2-methyl-1H-imidazol-1-yl)methyl)pyrrolidin-2-one] showed a fraction unbound at 5 min [1] of 0.69, a Kp ([2]; brain (caudate), Caudate, LEV 30 mg/kg i.v., read-out: VT (blocking)) of 7.7 and a Kp ([2]; brain (putamen), Putamen, LEV 30 mg/kg i.v., read-out: VT (blocking)) of 8.8. The Kp ([2]; brain (thalamus), Thalamus, LEV 30 mg/kg i.v., read-out: VT (blocking)) was 8.2, the Kp ([2]; brain, Lassen plot, read-out: VND) was 2.54 and the logP [3] was 1.65 ± 0.05. The “VT (blocking)” value (SV2A [4]; Amygdala) was 4.5 mL/cm^3, the “VT (blocking)” value (SV2A [4]; Brainstem) was 4.5 mL/cm^3 and the “VT (blocking)” value (SV2A [4]; Centrum semiovale) was 3.4 mL/cm^3. For the same compound, the “VT (blocking)” value (SV2A [4]; Cerebellum) was 6.6 mL/cm^3, the “VT (blocking)” value (SV2A [4]; Cingulate cortex) was 10.4 mL/cm^3 and the “VT (blocking)” value (SV2A [4]; Frontal cortex) was 9.5 mL/cm^3. For the same compound, the “VT (blocking)” value (SV2A [4]; Globus pallidus) was 6.9 mL/cm^3, the “VT (blocking)” value (SV2A [4]; Hippocampus) was 5.9 mL/cm^3 and the “VT (blocking)” value (SV2A [4]; Insular cortex) was 10.3 mL/cm^3. For the same compound, the “reduction of tracer uptake in LEV displacement” value (SV2A [4]; LEV 30 mg/kg i.v. at 120 min p.i., averaged from 5 brain regions, SUV at 4 h p.i. vs 180 min baseline) was 58 ± 8%, the “VT (blocking)” value (SV2A [4]; Nucleus accumbens) was 10.5 mL/cm^3 and the “VT (blocking)” value (SV2A [4]; Occipital cortex) was 8.3 mL/cm^3. For the same compound, the “VT (blocking)” value (SV2A [4]; Temporal cortex) was 8.6 mL/cm^3, the “BPND in the LEV blocking scan” value (SV2A [4]; cingulate cortex and nucleus accumbens, 79% SV2A occupied by LEV) was “up to 2.11” and the “reduction of tracer uptake in gray matter by pre-blocking” value (SV2A [4]; preinjected LEV 30 mg/kg i.v., normalized terminal SUV) was 57 ± 10%. For the same compound, the “fraction present in plasma as free base” value [5] was 30%, the “parent fraction in plasma” value ([6]; 30 min p.i.) was 89 ± 5% and the “parent fraction in plasma” value ([6]; 120 min p.i.) was 80 ± 7%. The “plasma to whole-blood ratio” value ([6]; over 180-min acquisition) was 0.93 ± 0.13, the “regional BPND range, CS as reference region” value (SV2A [7]) was 0.69-3.90 and the “regional BPND range, VND method” value (SV2A [7]) was 2.9-15.1. For the same compound, the “BPND, VND method” value (SV2A [7]; Amygdala) was 2.92 ± 0.25, the “BPND, VT(CS) method” value (SV2A [7]; Amygdala) was 0.69 ± 0.23 and the “BPND, VND method” value (SV2A [7]; Anterior cingulate) was 15.13 ± 4.21. The “BPND, VT(CS) method” value (SV2A [7]; Anterior cingulate) was 3.90 ± 1.38, the “BPND, VND method” value (SV2A [7]; Brainstem) was 4.93 ± 0.15 and the “BPND, VT(CS) method” value (SV2A [7]; Brainstem) was 1.14 ± 0.24. For the same compound, the “BPND, VND method” value (SV2A [7]; Caudate) was 8.76 ± 0.68, the “BPND, VT(CS) method” value (SV2A [7]; Caudate) was 2.27 ± 0.68 and the “BPND, VND method” value (SV2A [7]; Cerebellum) was 9.47 ± 0.65. The “BPND, VT(CS) method” value (SV2A [7]; Cerebellum) was 2.28 ± 0.53, the “BPND, VND method” value (SV2A [7]; Cingulate cortex) was 14.97 ± 0.28 and the “BPND, VT(CS) method” value (SV2A [7]; Cingulate cortex) was 3.77 ± 1.28. For the same compound, the “BPND, VND method” value (SV2A [7]; Frontal cortex) was 12.72 ± 0.76, the “BPND, VT(CS) method” value (SV2A [7]; Frontal cortex) was 3.24 ± 1.07 and the “BPND, VND method” value (SV2A [7]; Globus pallidus) was 6.60 ± 0.33. The “BPND, VT(CS) method” value (SV2A [7]; Globus pallidus) was 1.61 ± 0.42, the “BPND ratio [^18F]SDM-16/[^11C]UCB-J” value (SV2A [7]; Guo plot) was 1.41 and the “BPND ratio [^18F]SDM-16/[^18F]SynVesT-1” value (SV2A [7]; Guo plot) was 0.99. For the same compound, the “BPND, VND method” value (SV2A [7]; Hippocampus) was 6.55 ± 0.97, the “BPND, VT(CS) method” value (SV2A [7]; Hippocampus) was 1.72 ± 0.44 and the “BPND, VND method” value (SV2A [7]; Insular cortex) was 13.77 ± 1.93. For the same compound, the “BPND, VT(CS) method” value (SV2A [7]; Insular cortex) was 3.54 ± 1.31, the “BPND, VND method” value (SV2A [7]; Nucleus accumbens) was 14.51 ± 0.23 and the “BPND, VT(CS) method” value (SV2A [7]; Nucleus accumbens) was 3.48 ± 1.35. For the same compound, the “BPND, VND method” value (SV2A [7]; Occipital cortex) was 12.62 ± 1.09, the “BPND, VT(CS) method” value (SV2A [7]; Occipital cortex) was 3.49 ± 0.90 and the “BPND, VND method” value (SV2A [7]; Putamen) was 11.50 ± 0.8. The “BPND, VT(CS) method” value (SV2A [7]; Putamen) was 3.00 ± 1.00, the “BPND, VND method” value (SV2A [7]; Temporal cortex) was 12.06 ± 0.54 and the “BPND, VT(CS) method” value (SV2A [7]; Temporal cortex) was 3.15 ± 0.52. The “BPND, VND method” value (SV2A [7]; Thalamus) was 9.46 ± 0.19, the “BPND, VT(CS) method” value (SV2A [7]; Thalamus) was 2.29 ± 0.72 and the “BPND with CS VT lower than BPND with VND” value (SV2A [7]; average) was 67%.
